Results published in patent publication US10551384B2, “MTOR kinase mutations and methods of use thereof” (RUTGERS, THE STATE UNIVERSITY OF NEW JERSEY, priority 2016, dated 2020).

Test system: SW480 colorectal cancer cells carrying L2185A mutant mTOR alleles
Experiment: SRB growth assay of SW480 cells carrying L2185A mutant mTOR
Assay type: cell-based, human
Conditions: various concentrations, 2 day
Procedure: (FIG. 5A) SW480 cells carrying homozygous WT mTOR or L2185A mutant alleles were treated with various concentrations of AZD8055, INK-128, OSI-027 and PP242 for 2 day. Growth of SW480 cells was measured by SRB assay. Data represent means±SD in three independent experiments. (FIG. 5B) SW480 cells carrying homozygous WT and L2185A mutant mTOR allele were treated with a single dose of AZD8055 (100 nM), INK-128 (100 nM), OSI-027 (6,000 nM), and PP242 (2,000 nM) for different times. Cell growth was measured by SRB assay. The drug carrier DMSO was used as a control. Data represent means±SD in three independent experiments. (FIG. 5C) SW480 cells carrying homozygous WT and L2185A mutant mTOR were treated with various concentrations of INK-128, OSI-027, AZD8055 and PP242 for 1 hr. The effect on the level of P-S6K, S6K, P-4E-BP1, 4EB-P1, P-AKT and AKT was analyzed by immunoblot. […] The growth of SW480 cells was measured by SRB assay. Data represent means±SD in three independent experiments.
Cancer cell lines were maintained in DMEM or RPMI 1640, supplemented with 10% fetal bovine serum (Invitrogen) and 1% penicillin/streptomycin (Invitrogen). CRISPR/cas9 technology was used to engineer mutant mTOR allele in SW480 colorectal and H460 lung cancer cells. Briefly, The target sequence for mTOR, […] (SEQ ID NO: 3 was designed through the online tool at crispr.mit.edu, and cloned into pSPCas9(BB)-2A-GFP vector (PX458 in Addgene). Genomic mTOR mutation was engineered using a protocol as described (Ran, et al. (2013). Nature protocols 8, 2281-2308) and was confirmed by targeted sequencing.
Antibodies against tubulin, S6K, phospho-S6K (Thr389), 4E-BP1, phospho-4E-BP1 (Thr37/46), Akt, phospho-Akt (Thr308), and phospho-Akt (Ser473) were purchased from Cell Signaling Technology. […] For drug sensitivity test, cancer cells were seeded in 96-well plates at a density of 2,000 cells per well. 24 hours later, different concentrations of mTOR inhibitors were added in quadruplicate. Cell growth was measured by the sulforhodamine B (SRB) assay as previously described (Vichai, V., and Kirtikara, K. (2006). Nature protocols 1, 1112-1116).

CC(C)n1nc(-c2ccc3oc(N)nc3c2)c2c(N)ncnc21 [INK128]
drug resistance/sensitivity of cell growth, SW480 L2185A vs WT: confers resistance
